# Biological target: T1, Progesterone Receptor (Homo sapiens, UniProt P06401)
# T1 construct: expressed in transfected cells; host or cells: CV-1 cells transduced with PRb-BacMam and MMTV-BacMam (luciferase reporter)
# T1 sequence (P06401 1-933): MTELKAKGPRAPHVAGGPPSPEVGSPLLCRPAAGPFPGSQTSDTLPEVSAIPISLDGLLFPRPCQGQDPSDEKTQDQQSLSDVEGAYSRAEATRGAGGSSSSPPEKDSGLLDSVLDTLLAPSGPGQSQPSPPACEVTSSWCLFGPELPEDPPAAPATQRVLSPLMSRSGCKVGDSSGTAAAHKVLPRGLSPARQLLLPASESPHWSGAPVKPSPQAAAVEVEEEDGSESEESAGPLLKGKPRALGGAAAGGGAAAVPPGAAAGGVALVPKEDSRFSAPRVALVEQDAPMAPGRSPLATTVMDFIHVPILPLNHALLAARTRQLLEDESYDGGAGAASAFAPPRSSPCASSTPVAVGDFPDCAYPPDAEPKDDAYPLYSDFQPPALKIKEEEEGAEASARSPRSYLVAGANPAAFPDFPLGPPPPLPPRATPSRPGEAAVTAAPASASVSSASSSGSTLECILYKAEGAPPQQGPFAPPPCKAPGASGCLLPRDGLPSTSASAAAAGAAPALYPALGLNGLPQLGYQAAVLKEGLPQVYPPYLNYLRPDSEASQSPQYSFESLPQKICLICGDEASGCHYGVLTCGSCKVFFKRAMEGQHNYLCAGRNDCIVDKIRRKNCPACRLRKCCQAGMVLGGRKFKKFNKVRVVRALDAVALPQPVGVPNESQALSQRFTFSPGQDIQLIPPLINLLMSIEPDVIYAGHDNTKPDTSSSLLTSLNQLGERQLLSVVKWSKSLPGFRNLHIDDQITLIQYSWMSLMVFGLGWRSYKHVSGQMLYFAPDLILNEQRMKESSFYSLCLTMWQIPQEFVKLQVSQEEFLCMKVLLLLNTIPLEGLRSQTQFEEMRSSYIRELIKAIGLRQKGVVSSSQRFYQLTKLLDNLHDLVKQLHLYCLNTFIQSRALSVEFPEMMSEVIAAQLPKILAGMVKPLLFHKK
# Assay: Assay for progesterone receptor activity (CV-1 cells transduced with PRb-BacMam and MMTV-BacMam)
# Format: cell-based
# Details: 24 h, read-out: pEC50, progesterone receptor activity (converted)
# Method: A T225 flask of CV-1 cells at a density of 80% confluency was washed with PBS, detached from the flask using 0.25% trypsin and counted using a Sysmex KX-21N. Cells were diluted in DMEM containing 10% Hyclone, 2 mM […] and 1% Pen/Strep at 140 cells/μl and transduced with 10% PRb-BacMam and 10% MMTV-BacMam. […] of suspension cells were dispensed to each well of white Nunc 384-well plates, containing compounds at the required concentration. After 24 h 10 μl of Steady Glo were added to each well of the plates. Plates were incubated in the dark for 10 min before reading them on a Viewlux reader. Dose response curves were constructed from which pEC50 values were estimated.
row,SMILES,EC50
1,"COc1ccc(F)cc1C(C)(C)CC(O)(CNc1cccc2c1cnn2-c1ccc(F)cc1)C(F)(F)F (single isomer, unassigned) [Example 2-A, 1,1,1-Trifluoro-4-[5-fluoro-2-(methyloxy)phenyl]-2-({[1-(4-fluorophenyl)-1H-indazol-4-yl]amino}methyl)-4-methyl-2-pentanol]",> 10000 nM
2,"COc1ccc(F)cc1C(C)(C)CC(O)(CNc1cccc2c1cnn2-c1ccc(F)cc1F)C(F)(F)F (single isomer, unassigned) [Example 4-A, 2-({[1-(2,4-Difluorophenyl)-1H-indazol-4-yl]amino}methyl)-1,1′-trifluoro-4-[5-fluoro-2-(methyloxy)phenyl]-4-methyl-2-pentanol]",> 10000 nM
3,"CCOC(=O)c1cccc(-n2ncc3c(NCC(O)(CC(C)(C)c4cc(F)ccc4OC)C(F)(F)F)cccc32)c1 (single isomer, unassigned) [Example 6-A, Ethyl 3-(4-{[4-[5-fluoro-2-(methyloxy)phenyl]-2-hydroxy-4-methyl-2-(trifluoromethyl)pentyl]amino}-1H-indazol-1-yl)benzoate]",> 10000 nM
4,"COc1ccc(F)cc1C(C)(C)CC(O)(CNc1cc(C)cc2c1cnn2-c1ccccc1)C(F)(F)F (single isomer, unassigned) [Example 15-A, 1,1,1-Trifluoro-4-[5-fluoro-2-(methyloxy)phenyl]-4-methyl-2-{[(6-methyl-1-phenyl-1H-indazol-4-yl)amino]methyl}-2-pentanol]",> 10000 nM
5,"COc1ccc(F)cc1C(C)(C)CC(O)(CNc1cc(C)cc2c1cnn2-c1ccc(F)cc1F)C(F)(F)F (single isomer, unassigned) [Example 16-B, 2-({[1-(2,4-Difluorophenyl)-6-methyl-1H-indazol-4-yl]amino}methyl)-1,1,1-trifluoro-4-[5-fluoro-2-(methyloxy)phenyl]-4-methyl-2-pentanol]",> 10000 nM
6,"Cc1cc(NCC(O)(CC(C)(C)c2cc(F)ccc2O)C(F)(F)F)c2cnn(-c3cccc(O)c3)c2c1 (single isomer, unassigned) [Example 24-A, 4-Fluoro-2-[4,4,4-trifluoro-3-hydroxy-3-({[1-(3-hydroxyphenyl)-6-methyl-1H-indazol-4-yl]amino}methyl)-1,1-dimethylbutyl]phenol]",> 10000 nM
7,"COc1ccc(F)cc1C(C)(C)CC(O)(CNc1cc(C)cc2c1cnn2-c1ccccc1F)C(F)(F)F (single isomer, unassigned) [Example 25-B, 1,1,1-Trifluoro-4-[5-fluoro-2-(methyloxy)phenyl]-2-({[1-(2-fluorophenyl)-6-methyl-1H-indazol-4-yl]amino}methyl)-4-methyl-2-pentanol]",> 10000 nM
8,"COc1ccc(F)cc1C(C)(C)CC(O)(CNc1cc(C)cc2c1cnn2-c1ccc(F)cc1)C(F)(F)F (single isomer, unassigned) [Example 26-A, 1,1,1-Trifluoro-4-[5-fluoro-2-(methyloxy)phenyl]-2-({[1-(4-fluorophenyl)-6-methyl-1H-indazol-4-yl]amino}methyl)-4-methyl-2-pentanol]",> 10000 nM

# System: NFkB activity
# Assay: Glucocorticoid mediated transrepression of NFkB activity (A549 cells, ELAM promoter alkaline phosphatase reporter, TNFα stimulated)
# Format: cell-based
# Details: Homo sapiens, A549, 16 h, Human A549 lung epithelial cells, 3 ng/ml human recombinant TNFα, read-out: pEC50, transrepression of NFkB activity (converted)
# Source text: Human A549 lung epithelial cells were engineered to contain a secreted placental alkaline phosphatase gene under the control of the distal region of the NFkB dependent ELAM promoter as previously described in Ray, K. P., Farrow, S., Daly, M., Talabot, F. and Searle, N. “Induction of the E-selectin promoter by interleukin 1 and tumour necrosis factor alpha, and inhibition by glucocorticoids” Biochemical Journal (1997) 328: 707-15.
# Compounds were solvated and diluted in DMSO, and transferred directly into assay plates such that the final concentration of DMSO was 0.7%. Following the addition of cells (40K per well), plates were incubated for 1 hr prior to the addition of 3 ng/ml human recombinant TNFα. Following continued incubation for 16 hr, alkaline phosphatase activity was determined by measuring the change in optical density at 405 nm with time following the addition of 0.7 volumes of assay buffer (1 mg/ml p-nitrophenylphosphate dissolved in 1M diethanolamine, 0.28M NaCl, 0.5 mM MgCl2). Dose response curves were constructed from which EC50 values were estimated.
row,SMILES,EC50
1,"COc1ccc(F)cc1C(C)(C)CC(O)(CNc1cc(C)cc2c1cnn2-c1ccc(F)cc1F)C(F)(F)F (racemic) [Example 16, 2-({[1-(2,4-Difluorophenyl)-6-methyl-1H-indazol-4-yl]amino}methyl)-1,1,1-trifluoro-4-[5-fluoro-2-(methyloxy)phenyl]-4-methyl-2-pentanol]",< 3.16 nM
2,"COc1ccc(F)cc1C(C)(C)CC(O)(CNc1cc(C)cc2c1cnn2-c1ccccc1F)C(F)(F)F (racemic) [Example 25, 1,1,1-Trifluoro-4-[5-fluoro-2-(methyloxy)phenyl]-2-({[1-(2-fluorophenyl)-6-methyl-1H-indazol-4-yl]amino}methyl)-4-methyl-2-pentanol]",< 3.16 nM
3,"COc1ccc(-n2ncc3c(NCC(O)(CC(C)(C)c4cccc5c4OCC5)C(F)(F)F)cccc32)cc1 (racemic) [Example 28, 4-(2,3-Dihydro-1-benzofuran-7-yl)-1,1,1-trifluoro-4-methyl-2-[({1-[4-(methyloxy)phenyl]-1H-indazol-4-yl}amino)methyl]-2-pentanol]",< 3.16 nM
4,"COc1ccc(F)cc1C(C)(C)CC(O)(CNc1cccc2c1cnn2-c1ccccc1F)C(F)(F)F (single isomer, unassigned) [Example 1-A, 1,1,1-Trifluoro-4-[5-fluoro-2-(methyloxy)phenyl]-2-({[1-(2-fluorophenyl)-1H-indazol-4-yl]amino}methyl)-4-methyl-2-pentanol]",< 3.16 nM
5,"COc1ccc(F)cc1C(C)(C)CC(O)(CNc1cccc2c1cnn2-c1ccc(F)cc1)C(F)(F)F (single isomer, unassigned) [Example 2-B, 1,1,1-Trifluoro-4-[5-fluoro-2-(methyloxy)phenyl]-2-({[1-(4-fluorophenyl)-1H-indazol-4-yl]amino}methyl)-4-methyl-2-pentanol]",< 3.16 nM
6,"CCOC(=O)c1cccc(-n2ncc3c(NCC(O)(CC(C)(C)c4cc(F)ccc4OC)C(F)(F)F)cccc32)c1 (single isomer, unassigned) [Example 6-B, Ethyl 3-(4-{[4-[5-fluoro-2-(methyloxy)phenyl]-2-hydroxy-4-methyl-2-(trifluoromethyl)pentyl]amino}-1H-indazol-1-yl)benzoate]",< 3.16 nM
7,"COC(=O)c1cccc(-n2ncc3c(NCC(O)(CC(C)(C)c4cc(F)ccc4OC)C(F)(F)F)cccc32)c1 (single isomer, unassigned) [Example 14-B, Methyl 3-(4-{[4-[5-fluoro-2-(methyloxy)phenyl]-2-hydroxy-4-methyl-2-(trifluoromethyl)pentyl]amino}-1H-indazol-1-yl)benzoate]",< 3.16 nM
8,"Cc1cc(NC[C@](O)(CC(C)(C)c2cc(F)ccc2O)C(F)(F)F)c2cnn(-c3ccc(F)cc3F)c2c1 [Example 18, 2(R)-2-[3-({[1-(2,4-Difluorophenyl)-6-methyl-1H-indazol-4-yl]amino}methyl)-4,4,4-trifluoro-3-hydroxy-1,1-dimethylbutyl]-4-fluorophenol]",< 3.16 nM
9,"COc1ccc(-n2ncc3c(NCC(O)(CC(C)(C)c4cc(F)ccc4OC)C(F)(F)F)cc(C)cc32)cc1 (centres unmarked) [Example 19, 1,1,1-Trifluoro-4-[5-fluoro-2-(methyloxy)phenyl]-4-methyl-2-[({6-methyl-1-[4-(methyloxy)phenyl]-1H-indazol-4-yl}amino)methyl]-2-pentanol]",< 3.16 nM
10,"COc1cccc(-n2ncc3c(NCC(O)(CC(C)(C)c4cc(F)ccc4OC)C(F)(F)F)cc(C)cc32)c1 (centres unmarked) [Example 22, 1,1,1-Trifluoro-4-[5-fluoro-2-(methyloxy)phenyl]-4-methyl-2-[({6-methyl-1-[3-(methyloxy)phenyl]-1H-indazol-4-yl}amino)methyl]-2-pentanol]",< 3.16 nM
11,"COc1ccc(F)cc1C(C)(C)CC(O)(CNc1cc(C)cc2c1cnn2-c1cccc(O)c1)C(F)(F)F (centres unmarked) [Example 23, 3-(4-{[4-[5-Fluoro-2-(methyloxy)phenyl]-2-hydroxy-4-methyl-2-(trifluoromethyl)pentyl]amino}-6-methyl-1H-indazol-1-yl)phenol]",< 3.16 nM
12,"CCOC(=O)c1cccc(-n2ncc3c(NCC(O)(CC(C)(C)c4cc(F)ccc4OC)C(F)(F)F)cc(C)cc32)c1 (centres unmarked) [Example 27, Ethyl 3-(4-{[4-[5-fluoro-2-(methyloxy)phenyl]-2-hydroxy-4-methyl-2-(trifluoromethyl)pentyl]amino}-6-methyl-1H-indazol-1-yl)benzoate]",< 3.16 nM
